Assay results reported in PubChem BioAssay (NCI).
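Cells were grown in 96-well plates and exposed to each compound for 48 hours at five concentrations; endpoints were interpolated linearly between bracketing concentrations, or set to the highest concentration if not reached. TGI: total growth inhibition.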

Columns and labels:
Test in all cases: NCI-60 cell line screen, 48 h
OVCAR-5 ovarian = test system: OVCAR-5 ovarian
SK-OV-3 ovarian = test system: SK-OV-3 ovarian
IGROV1 ovarian = test system: IGROV1 ovarian
HL-60(TB) leukemia = test system: HL-60(TB) leukemia
HOP-62 NSCLC = test system: HOP-62 NSCLC
SN12C renal = test system: SN12C renal
MOLT-4 leukemia = test system: MOLT-4 leukemia
OVCAR-8 ovarian = test system: OVCAR-8 ovarian
COLO 205 colon = test system: COLO 205 colon
SF-295 CNS = test system: SF-295 CNS
HCC-2998 colon = test system: HCC-2998 colon
SK-MEL-5 melanoma = test system: SK-MEL-5 melanoma
CCRF-CEM leukemia = test system: CCRF-CEM leukemia
HS 578T breast = test system: HS 578T breast
ACHN renal = test system: ACHN renal
UACC-62 melanoma = test system: UACC-62 melanoma
UACC-257 melanoma = test system: UACC-257 melanoma
SW-620 colon = test system: SW-620 colon
K-562 leukemia = test system: K-562 leukemia
TK-10 renal = test system: TK-10 renal
MDA-MB-231 breast = test system: MDA-MB-231 breast
SF-268 CNS = test system: SF-268 CNS
RPMI-8226 leukemia = test system: RPMI-8226 leukemia
OVCAR-3 ovarian = test system: OVCAR-3 ovarian
LOX IMVI melanoma = test system: LOX IMVI melanoma
UO-31 renal = test system: UO-31 renal
DU-145 prostate = test system: DU-145 prostate
M14 melanoma = test system: M14 melanoma
786-0 renal = test system: 786-0 renal
SNB-75 CNS = test system: SNB-75 CNS
MDA-MB-435 = test system: MDA-MB-435
NCI-H23 lung = test system: NCI-H23 lung
SK-MEL-2 melanoma = test system: SK-MEL-2 melanoma
A549 NSCLC = test system: A549 NSCLC
OVCAR-4 ovarian = test system: OVCAR-4 ovarian
NCI-H226 lung = test system: NCI-H226 lung
HT29 colon = test system: HT29 colon
PC-3 prostate = test system: PC-3 prostate
NCI-H460 lung = test system: NCI-H460 lung
KM12 colon = test system: KM12 colon
HCT-116 colon = test system: HCT-116 colon
HOP-92 NSCLC = test system: HOP-92 NSCLC
NCI/ADR-RES ovarian = test system: NCI/ADR-RES ovarian
MDA-N = test system: MDA-N
SF-539 CNS = test system: SF-539 CNS
U251 CNS = test system: U251 CNS
MCF7 breast = test system: MCF7 breast
EKVX NSCLC = test system: EKVX NSCLC
SK-MEL-28 melanoma = test system: SK-MEL-28 melanoma
SR leukemia = test system: SR leukemia
T-47D breast = test system: T-47D breast
HCT-15 colon = test system: HCT-15 colon
MALME-3M melanoma = test system: MALME-3M melanoma
RXF 393 renal = test system: RXF 393 renal
CAKI-1 renal = test system: CAKI-1 renal
A498 renal = test system: A498 renal
SNB-19 CNS = test system: SNB-19 CNS
NCI-H522 lung = test system: NCI-H522 lung

## Cc1cc2c3c(nc2c2cc[nH]c(C)c12)CCCC3
OVCAR-5 ovarian
  TGI: 13.6 µM
SK-OV-3 ovarian
  TGI: 3.7 µM
IGROV1 ovarian
  TGI: 5.4 µM
HL-60(TB) leukemia
  TGI: 3.76 µM
HOP-62 NSCLC
  TGI: 3.62 µM
SN12C renal
  TGI: 3.39 µM
MOLT-4 leukemia
  TGI: 4.32 µM
OVCAR-8 ovarian
  TGI: 4.96 µM
COLO 205 colon
  TGI: 3.37 µM
SF-295 CNS
  TGI: 3.93 µM
HCC-2998 colon
  TGI: 3.43 µM
SK-MEL-5 melanoma
  TGI: 2.89 µM
CCRF-CEM leukemia
  TGI: 6.48 µM
HS 578T breast
  TGI: 4.41 µM
ACHN renal
  TGI: 15 µM
UACC-62 melanoma
  TGI: 3.32 µM
UACC-257 melanoma
  TGI: 3.66 µM
SW-620 colon
  TGI: 3.79 µM
K-562 leukemia
  TGI: 5.65 µM
TK-10 renal
  TGI: 4.64 µM
MDA-MB-231 breast
  TGI: 3.17 µM
SF-268 CNS
  TGI: 14 µM
RPMI-8226 leukemia
  TGI: 4.56 µM
OVCAR-3 ovarian
  TGI: 5.07 µM
LOX IMVI melanoma
  TGI: 4.69 µM
UO-31 renal
  TGI: 6.91 µM
DU-145 prostate
  TGI: 11.1 µM
M14 melanoma
  TGI: 3.63 µM
786-0 renal
  TGI: 3.04 µM
SNB-75 CNS
  TGI: 4.02 µM
MDA-MB-435
  TGI: 3.63 µM
NCI-H23 lung
  TGI: 10.4 µM
SK-MEL-2 melanoma
  TGI: 3.2 µM
A549 NSCLC
  TGI: 4.53 µM
OVCAR-4 ovarian
  TGI: 6.45 µM
NCI-H226 lung
  TGI: 29.6 µM
HT29 colon
  TGI: 6.25 µM
PC-3 prostate
  TGI: 16.6 µM
NCI-H460 lung
  TGI: 4.27 µM
KM12 colon
  TGI: 7.13 µM
HCT-116 colon
  TGI: 3.35 µM
HOP-92 NSCLC
  TGI: 7.3 µM
NCI/ADR-RES ovarian
  TGI: 19.5 µM
MDA-N
  TGI: 3.32 µM
SF-539 CNS
  TGI: 3.72 µM
U251 CNS
  TGI: 3.83 µM
MCF7 breast
  TGI: 3.02 µM
EKVX NSCLC
  TGI: 8.44 µM
SK-MEL-28 melanoma
  TGI: 3.57 µM
SR leukemia
  TGI: 4.29 µM
T-47D breast
  TGI: 4.53 µM
HCT-15 colon
  TGI: 3.54 µM
MALME-3M melanoma
  TGI: 2.74 µM

## C[C@@H](c1ccccc1)N1C[C@@H](c2ccc3c(c2)OCO3)[C@@H]2C(=O)CCC[C@@H]21
OVCAR-5 ovarian
  TGI: > 100 µM
SK-OV-3 ovarian
  TGI: > 100 µM
IGROV1 ovarian
  TGI: > 100 µM
HL-60(TB) leukemia
  TGI: > 100 µM
HOP-62 NSCLC
  TGI: > 100 µM
SN12C renal
  TGI: > 100 µM
MOLT-4 leukemia
  TGI: 77.6 µM
OVCAR-8 ovarian
  TGI: > 100 µM
COLO 205 colon
  TGI: 42.4 µM
SF-295 CNS
  TGI: > 100 µM
RXF 393 renal
  TGI: > 100 µM
HCC-2998 colon
  TGI: 76.7 µM
SK-MEL-5 melanoma
  TGI: > 100 µM
CCRF-CEM leukemia
  TGI: > 100 µM
HS 578T breast
  TGI: > 100 µM
ACHN renal
  TGI: 67.2 µM
UACC-62 melanoma
  TGI: 52 µM
CAKI-1 renal
  TGI: > 100 µM
UACC-257 melanoma
  TGI: > 100 µM
K-562 leukemia
  TGI: > 100 µM
TK-10 renal
  TGI: > 100 µM
MDA-MB-231 breast
  TGI: > 100 µM
SF-268 CNS
  TGI: > 100 µM
RPMI-8226 leukemia
  TGI: 92.8 µM
LOX IMVI melanoma
  TGI: > 100 µM
UO-31 renal
  TGI: > 100 µM
DU-145 prostate
  TGI: > 100 µM
M14 melanoma
  TGI: 36.9 µM
786-0 renal
  TGI: > 100 µM
SNB-75 CNS
  TGI: > 100 µM
MDA-MB-435
  TGI: > 100 µM
NCI-H23 lung
  TGI: > 100 µM
SK-MEL-2 melanoma
  TGI: 94.8 µM
A549 NSCLC
  TGI: > 100 µM
OVCAR-4 ovarian
  TGI: > 100 µM
NCI-H226 lung
  TGI: > 100 µM
A498 renal
  TGI: 59.1 µM
HT29 colon
  TGI: > 100 µM
PC-3 prostate
  TGI: > 100 µM
NCI-H460 lung
  TGI: > 100 µM
KM12 colon
  TGI: > 100 µM
HCT-116 colon
  TGI: > 100 µM
HOP-92 NSCLC
  TGI: > 100 µM
NCI/ADR-RES ovarian
  TGI: > 100 µM
MDA-N
  TGI: > 100 µM
U251 CNS
  TGI: > 100 µM
MCF7 breast
  TGI: 71.5 µM
EKVX NSCLC
  TGI: > 100 µM
SK-MEL-28 melanoma
  TGI: 76 µM
SR leukemia
  TGI: > 100 µM
SNB-19 CNS
  TGI: > 100 µM
T-47D breast
  TGI: > 100 µM
HCT-15 colon
  TGI: > 100 µM
MALME-3M melanoma
  TGI: 87.5 µM
NCI-H522 lung
  TGI: > 100 µM
